The text below walks through data of patent US20020169175A1, “Pharmaceutically acceptable salts of heterocyclic compounds” (DR. REDDY'S LABORATORIES LTD., priority 2001, published 2002).

Each structure is given as a SMILES string. Where a name gives a salt, the structure may show the parent alone. Read-outs that look alike come from different tables or passages of the source. A value given as a limit tells only on which side of the number the result lay.

A short description of data set [1]: Single dose oral pharmacokinetic studies in male Wistar rats. The data set is classed as in vivo, rat. Conditions: fasted, suspension in 0.25% sodium CMC; for half-life: read-out: t½ (converted). The protocol: Single Dose Oral Pharmacokinetic Studies
Male Wistar rats (220-250 gm) were used in the experiments. The animals were maintained under standard laboratory conditions and had free access to feed and water ad libitum. Before experimentation animals were fasted overnight (˜15 h) during which they had free access to water ad libitum.
An amount equivalent to 30 mg of drug was weighed accurately and transferred into a clean mortar and triturated to obtain a fine powder. To this 0.5 ml of 0.25% sodium carboxy methyl cellulose (sodium CMC) was added to obtain a paste. To the obtained paste remaining 2.5 ml of sodium CMC was added to make up the volume to 3 ml. Based on the animal weight appropriate volume (body weight×3) of the prepared suspension was administered through oral gavage.
After dosing, at designated time points (0.5, 1, 2, 3, 5, 8, 12 and 24 h) 200 μl of blood was collected from retro orbital plexus into 0.5 ml eppendorff tubes containing EDTA (10 μl of 200 mg/ml solution in Milli Q water). Blood was centrifuged at 12,800 rpm for 5 min and obtained plasma and stored at −20° C. till further analysis.
100μl plasma was transferred into a clean and dry centrifuge tube. To this internal standard (10 μl of 100 μg/ml) was added and extracted with 2 ml of extraction recovery solvent. The contents were vortexed for 2 min, followed by centrifugation for 10 min at 2800 rpm. Clear organic layer (2×0.75 ml) was separated and dried under nitrogen gas at 50° C. The residue was reconstituted with 150 μl of mobile phase and vortexed for 20 sec, from this 50 μl was injected onto HPLC column.
Pharmacokinetic parameters were calculated by non-compartmental model analysis. The peak plasma concentration (Cmax) and the corresponding time (Tmax)were directly obtained from the raw data. The area under the plasma concentration versus time curve up to the last quantifiable time point, AUC(0−t) was obtained by the linear and log-linear trapezoidal summation. The AUC(0−t) extrapolated to infinity (i.e., AUC(0−∞)) by adding the quotient of Clast/Kel, where Clast represents the last measurable time concentration and Kel represents the apparent terminal rate constant. Kel was calculated by the linear regression of the log-transformed concentrations of the drug in the terminal phase. The half-life of the terminal elimination phase was obtained using the relationship t½=0.693/Kel.

Where [2] appears, read: male, Wistar, rat, plasma, po, 30 mg/kg.
Where [3] appears, read: male, Wistar, rat, plasma, po, 30 mg/kg, read-out: AUC (0-t).
[4] abbreviates: male, Wistar, rat, plasma, po, 30 mg/kg, read-out: Cmax.
The mark [5] stands for this setting: male, Wistar, rat, plasma, po, 30 mg/kg, read-out: Tmax.

Usually melting point stands for the temperature, or range, at which the solid turns liquid. In turn, `CCCc1nn(C)c2c(=O)n(CCOc3ccc(C[C@H](OCC)C(=O)O)cc3)c(CC)nc12` (as salt: salt) [Example 44, (−)-3-[4-[2-(1-Methyl-5-ethyl-7-oxo-3-propyl-6,7-dihydro-1H-pyrazolo[4,3-d]pyrimidin-6-yl)ethoxy]phenyl]-2-ethoxypropionic acid metformin salt] had a melting point of 118 °C.

Turning to `CCO[C@@H](Cc1ccc(OCCn2c(CC)nc3ccccc3c2=O)cc1)C(=O)[O-].[Li+]` (stereo in doubt), the melting point lay in the range of 245 to 247 °C.

Take `CCO[C@@H](Cc1ccc(OCCn2c(CC)nc3ccccc3c2=O)cc1)C(=O)O` (as salt: salt) [Example 10, (−)-3-[4-[2-(2-Ethyl-4-oxo-3,4-dihydroquinazolin-3-yl)ethoxy]phenyl]-2-ethoxypropanoic acid magnesium salt]: the melting point is over 250 °C.

By AUC(0-t) is commonly meant exposure summed from dosing to a finite time, without extrapolation to infinity. Broadly, the Cmax is the peak of the concentration-time curve. By Tmax is commonly meant the time at which the peak concentration occurs. What is called t½ is how long it takes for the measured level to halve. Turning to `CCO[C@@H](Cc1ccc(OCCn2c(CC)nc3ccccc3c2=O)cc1)C(=O)O` [Example 7, (−)-3-[4-[2-(2-Ethyl-4-oxo-3,4-dihydroquinazolin-3-yl)ethoxy]phenyl]-2-ethoxypropanoic acid N-methyl glucamine salt], in data set [1], the “AUC (0-∞)” value was 51430 ng·h/mL, the “AUC(0-t)” value stood at 51650 ng·h/mL, the Cmax was 40250 ng/mL and the Kel stood at 0.38 h⁻¹. In data set [1], the Tmax is listed as 0.90 h and the t½ worked out at 1.91 h.

`CCCc1nn(C)c2c(=O)n(CCOc3ccc(C[C@H](OCC)C(=O)O)cc3)c(CC)nc12` (as salt: salt) [Example 41, (−)-3-[4-[2-(1-Methyl-5-ethyl-7-oxo-3-propyl-6,7-dihydro-1H-pyrazolo[4,3-d]pyrimidin-6-yl)ethoxy]phenyl]-2-ethoxypropionic acid dicyclohexylamine salt] gave a melting point of 138 to 140 °C.

With `CCCc1nn(C)c2c(=O)n(CCOc3ccc(C[C@H](OCC)C(=O)[O-])cc3)c(CC)nc12.[Na+]` [Example 35, (−)-3-[4-[2-(1-Methyl-5-ethyl-7-oxo-3-propyl-6,7-dihydro-1H-pyrazolo[4,3-d]pyrimidin-6-yl)ethoxy]phenyl]-2-ethoxypropionic acid sodium salt], the melting point lay in the range of 112 to 114 °C.

Usually AUC(0-inf) stands for total exposure, with the tail of the curve extrapolated. A low value points to low exposure. With `CCO[C@@H](Cc1ccc(OCCn2c(CC)nc(-c3ccccc3)cc2=O)cc1)C(=O)[O-].[Na+]` [Example 47, (−)2-Ethoxy-3-[4-[2-[2-ethyl-6-oxo-4-phenyl-1,6-dihydropyrimidin-1-yl]ethoxy]phenyl]propanoic acid sodium salt], in data set [1], the Kel was 0.34 h⁻¹. In data set [1] (setting [2]), the total exposure AUC(0-inf) stood at 83300 ng·h/mL and the half-life was 2.07 h. Moreover, the AUC(0-t) in data set [1] (setting [3]) is 82200 ng·h/mL. The Cmax in data set [1] (setting [4]) worked out at 39500 ng/mL. Further, in data set [1] (setting [5]), the Tmax worked out at 0.5 h.

`CCO[C@@H](Cc1ccc(OCCn2c(CC)nc3ccccc3c2=O)cc1)C(=O)O` (as salt: salt) [Example 4, (−)-3-[4-[2-(2-Ethyl-4-oxo-3,4-dihydroquinazolin-3-yl)ethoxy]phenyl]-2ethoxypropanoic acid lysine salt]: the melting point is 152 to 155 °C.

`CCCc1nn(C)c2c(=O)n(CCOc3ccc(C[C@H](OCC)C(=O)O)cc3)c(CC)nc12` (as salt: salt) [Example 36, (−)-3-[4-[2-(1-Methyl-5-ethyl-7-oxo-3-propyl-6,7-dihydro-1H-pyrazolo[4,3-d]pyrimidin-6-yl)ethoxy]phenyl]-2-ethoxypropionic acid arginine salt] yielded a melting point of 235 °C.

Take `CCO[C@@H](Cc1ccc(OCCn2c(CC)nc3ccccc3c2=O)cc1)C(=O)O` [Example 10, (−)-3-[4-[2-(2-Ethyl-4-oxo-3,4-dihydroquinazolin-3-yl)ethoxy]phenyl]-2-ethoxypropanoic acid magnesium salt]: in data set [1], the “AUC (0-∞)” value is 74070 ng·h/mL, the “AUC(0-t)” value was 75890 ng·h/mL, the Cmax came out at 54210 ng/mL and the Kel was found to be 0.34 h⁻¹. Besides, in data set [1], the Tmax came out at 0.50 h and the t½ is on record as 2.16 h.

Compound `CCO[C@@H](Cc1ccc(OCCn2c(CC)nc3ccccc3c2=O)cc1)C(=O)O` (as salt: salt) [Example 7, (−)-3-[4-[2-(2-Ethyl-4-oxo-3,4-dihydroquinazolin-3-yl)ethoxy]phenyl]-2-ethoxypropanoic acid N-methyl glucamine salt] yielded a melting point of 114 to 116 °C.

`CCO[C@@H](Cc1ccc(OCCn2c(CC)nc3ccccc3c2=O)cc1)C(=O)O` [Example 4, (−)-3-[4-[2-(2-Ethyl-4-oxo-3,4-dihydroquinazolin-3-yl)ethoxy]phenyl]-2ethoxypropanoic acid lysine salt] yielded a Kel in data set [1] of 0.31 h⁻¹. In addition, in data set [1] (setting [2]), the AUC(0-inf) was 38400 ng·h/mL and the half-life is 1.97 h. Further, the AUC(0-t) in data set [1] (setting [3]) was determined as 40600 ng·h/mL. In addition, in data set [1] (setting [4]), the Cmax was 38700 ng/mL. The time of peak concentration (Tmax) in data set [1] (setting [5]) amounted to 0.5 h.

Compound `CCCc1nn(C)c2c(=O)n(CCOc3ccc(C[C@H](OCC)C(=O)[O-])cc3)c(CC)nc12.[K+]` (stereo in doubt) yielded a melting point of 164 °C.

`CCO[C@@H](Cc1ccc(OCCn2c(CC)nc(-c3ccccc3)cc2=O)cc1)C(=O)[O-].[K+]` [Example 46, (−)2-Ethoxy-3-[4-[2-[2-ethyl-6-oxo-4-phenyl-1,6-dihydropyrimidin-1-yl]ethoxy]phenyl]propanoic acid potassium salt] yielded a Kel in data set [1] of 0.32 h⁻¹. In data set [1] (setting [2]), the area under the curve AUC(0-inf) was 62900 ng·h/mL and the half-life was 2.19 h. Moreover, in data set [1] (setting [3]), the AUC(0-t) worked out at 61200 ng·h/mL. Moreover, the Cmax in data set [1] (setting [4]) turned out to be 17700 ng/mL. Also, in data set [1] (setting [5]), the time to peak (Tmax) was 1.33 h.

As to `CCCc1nn(C)c2c(=O)n(CCOc3ccc(C[C@H](OCC)C(=O)O)cc3)c(CC)nc12` [Example 40, (−)-3-[4-[2-(1-Methyl-5-ethyl-7-oxo-3-propyl-6,7-dihydro-1H-pyrazolo[4,3-d]pyrimidin-6-yl)ethoxy]phenyl]-2-ethoxypropionic acid tromethamine salt], in data set [1], the Kel was determined as 0.60 h⁻¹ and the Tmax is recorded as 0.75 h. Also, in data set [1] (setting [2]), the AUC(0-inf) was found to be 78600 ng·h/mL and the half-life was 1.2 h. Besides, the AUC(0-t) in data set [1] (setting [3]) worked out at 77800 ng·h/mL. Further, the Cmax in data set [1] (setting [4]) came out at 34200 ng/mL.

Take `CCO[C@@H](Cc1ccc(OCCn2c(CC)nc(-c3ccccc3)cc2=O)cc1)C(=O)O` [Example 48, (−)2-Ethoxy-3-[4-[2-[2-ethyl-6-oxo-4-phenyl-1,6-dihydropyrimidin-1-yl]ethoxy]phenyl]propanoic acid L-arginine salt]: the Kel in data set [1] came out at 0.29 h⁻¹. Further, in data set [1] (setting [2]), the area under the curve AUC(0-inf) amounted to 92600 ng·h/mL and the half-life is 2.18 h. Besides, in data set [1] (setting [3]), the exposure AUC(0-t) was determined as 90100 ng·h/mL. Further, in data set [1] (setting [4]), the Cmax stood at 50400 ng/mL. Also, the Tmax in data set [1] (setting [5]) was determined as 0.5 h.

Consider `CCCc1nn(C)c2c(=O)n(CCOc3ccc(C[C@H](OCC)C(=O)O)cc3)c(CC)nc12` (as salt: salt) [Example 39, (−)-3-[4-[2-(1-Methyl-5-ethyl-7-oxo-3-propyl-6,7-dihydro-1H-pyrazolo[4,3-d]pyrimidin-6-yl)ethoxy]phenyl]-2-ethoxypropionic acid aminoguanidine hydrogen carbonate salt], for which the melting point was determined as 130 °C.
